According to ChEMBL document CHEMBL1201862, “PubChem BioAssay data set” (2004):
Activity calls are given as the source filed them.

Key:
[1] = THP-1 cell cytotoxicity, dose response, cytotoxicity control for non-replicating M. tuberculosis project (AID 489025); assay type: functional
cells = assay type: functional
Hexokinase HKDC1 = target: T1, Hexokinase HKDC1 (Homo sapiens, UniProt Q2TB90); assay: inhibition of HKDC1 glucose phosphorylation – biochemical, W721R variant, dose response (AID 504729); assay type: functional
T1 sequence (Q2TB90 whole entry): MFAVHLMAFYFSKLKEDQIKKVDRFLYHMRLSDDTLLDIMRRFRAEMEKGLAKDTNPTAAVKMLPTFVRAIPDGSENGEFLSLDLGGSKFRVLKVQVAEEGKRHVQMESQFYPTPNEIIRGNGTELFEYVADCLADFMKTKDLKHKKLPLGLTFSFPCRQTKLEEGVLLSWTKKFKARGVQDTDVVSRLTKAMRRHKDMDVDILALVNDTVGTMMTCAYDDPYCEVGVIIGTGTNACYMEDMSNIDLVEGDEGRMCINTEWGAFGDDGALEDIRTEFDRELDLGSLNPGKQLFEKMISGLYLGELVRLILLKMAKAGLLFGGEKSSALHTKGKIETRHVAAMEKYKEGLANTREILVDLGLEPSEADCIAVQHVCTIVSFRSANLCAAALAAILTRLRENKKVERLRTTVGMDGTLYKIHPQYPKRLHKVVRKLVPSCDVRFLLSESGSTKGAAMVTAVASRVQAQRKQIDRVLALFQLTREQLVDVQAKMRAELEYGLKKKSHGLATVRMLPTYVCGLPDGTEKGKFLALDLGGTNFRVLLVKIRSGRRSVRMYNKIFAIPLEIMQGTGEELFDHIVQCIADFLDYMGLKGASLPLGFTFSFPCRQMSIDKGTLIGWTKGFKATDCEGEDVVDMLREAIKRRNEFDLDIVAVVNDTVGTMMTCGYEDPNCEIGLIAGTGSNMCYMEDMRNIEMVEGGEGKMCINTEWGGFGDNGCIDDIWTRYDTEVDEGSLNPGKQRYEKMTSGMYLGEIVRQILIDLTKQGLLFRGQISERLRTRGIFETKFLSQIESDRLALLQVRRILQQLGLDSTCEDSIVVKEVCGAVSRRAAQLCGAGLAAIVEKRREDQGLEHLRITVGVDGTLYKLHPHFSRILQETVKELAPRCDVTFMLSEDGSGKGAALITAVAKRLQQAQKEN

[2] = target: Peroxisome proliferator-activated receptor gamma/Nuclear receptor coactivator 3 (Homo sapiens, UniProt P37231); assay type: functional;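 note: agonist potency for raising coactivator recruitment to the receptor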
[3] = target: Peroxisome proliferator-activated receptor gamma/Nuclear receptor coactivator 1 (Homo sapiens, UniProt P37231); assay type: functional;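 note: agonist potency as compounds enhance coactivator SRC-1 recruitment to PPARgamma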
[4] = target: Peroxisome proliferator-activated receptor gamma/Nuclear receptor coactivator 2 (Homo sapiens, UniProt P37231); assay type: functional;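 note: agonist potency for raising coactivator recruitment to the receptor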
[5] = HEK-293T cell viability reduction – luminescence, B-cell screen hits, cytotoxicity control for BCR NF-kB inhibitor project, dose response (AID 489021); assay type: functional, cell-based;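 note: HEK-293T cells carrying an NF-kB luciferase reporter; cells exposed to compound for about 14 hours before viability readout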
Bcl-2-like protein 10 = target: T2, Bcl-2-like protein 10 (Homo sapiens, UniProt Q9HD36); assay: Bcl-B/TR3 peptide binding disruption – biochemical, fluorescence polarization, FITC-TR3 peptide, selectivity assay for Bfl-1 inhibitor project, primary screen (AID 748);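 note: fluorescence polarization from a fluorescein-labelled TR3 peptide binding purified Bcl-B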
T2 sequence (Q9HD36 whole entry): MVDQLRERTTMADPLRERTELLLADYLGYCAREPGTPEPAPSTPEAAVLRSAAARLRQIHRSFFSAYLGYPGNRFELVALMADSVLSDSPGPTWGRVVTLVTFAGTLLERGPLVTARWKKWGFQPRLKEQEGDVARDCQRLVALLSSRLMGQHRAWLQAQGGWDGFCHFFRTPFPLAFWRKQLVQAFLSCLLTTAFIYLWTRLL

[6] = target: DNA dC->dU-editing enzyme APOBEC-3A (Homo sapiens, UniProt P31941); assay: A3A deaminase inhibition for selectivity – biochemical, dose response (AID 504722); assay type: functional
[7] = target: DNA dC->dU-editing enzyme APOBEC-3G (Homo sapiens, UniProt Q9HC16); assay: Dose Response confirmation of small molecule APOBEC3G DNA Deaminase Inhibitors via a fluorescence-based single-stranded DNA deaminase assay. [Related pubchem assays (depositor defined):AID493012, AID493028]; assay type: functional
Estrogen receptor = target: T3, Estrogen receptor (Homo sapiens, UniProt P03372); assay: ERα coactivator recruitment enhancers – biochemical, TR-FRET, ERα LBD, dose response (AID 737)
T3 sequence (P03372 whole entry): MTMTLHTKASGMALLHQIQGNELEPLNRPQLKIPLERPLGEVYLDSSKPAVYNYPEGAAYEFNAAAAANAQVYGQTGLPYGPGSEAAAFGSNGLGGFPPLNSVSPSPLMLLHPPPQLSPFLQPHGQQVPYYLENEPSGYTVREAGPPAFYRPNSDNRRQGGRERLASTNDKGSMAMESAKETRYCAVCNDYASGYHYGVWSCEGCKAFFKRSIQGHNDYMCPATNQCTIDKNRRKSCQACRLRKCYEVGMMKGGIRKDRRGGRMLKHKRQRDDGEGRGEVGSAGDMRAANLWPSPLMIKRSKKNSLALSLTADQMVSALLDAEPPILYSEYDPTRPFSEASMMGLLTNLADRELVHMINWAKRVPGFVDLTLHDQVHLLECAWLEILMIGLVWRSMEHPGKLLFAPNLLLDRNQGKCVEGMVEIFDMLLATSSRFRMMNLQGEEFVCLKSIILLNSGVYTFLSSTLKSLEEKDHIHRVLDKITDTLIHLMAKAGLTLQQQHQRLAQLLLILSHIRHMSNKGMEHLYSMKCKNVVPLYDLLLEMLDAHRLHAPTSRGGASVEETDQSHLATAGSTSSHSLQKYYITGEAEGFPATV

Chain of Peroxisome proliferator-activated receptor gamma/Nuclear receptor coactivator 2 (P37231 whole entry): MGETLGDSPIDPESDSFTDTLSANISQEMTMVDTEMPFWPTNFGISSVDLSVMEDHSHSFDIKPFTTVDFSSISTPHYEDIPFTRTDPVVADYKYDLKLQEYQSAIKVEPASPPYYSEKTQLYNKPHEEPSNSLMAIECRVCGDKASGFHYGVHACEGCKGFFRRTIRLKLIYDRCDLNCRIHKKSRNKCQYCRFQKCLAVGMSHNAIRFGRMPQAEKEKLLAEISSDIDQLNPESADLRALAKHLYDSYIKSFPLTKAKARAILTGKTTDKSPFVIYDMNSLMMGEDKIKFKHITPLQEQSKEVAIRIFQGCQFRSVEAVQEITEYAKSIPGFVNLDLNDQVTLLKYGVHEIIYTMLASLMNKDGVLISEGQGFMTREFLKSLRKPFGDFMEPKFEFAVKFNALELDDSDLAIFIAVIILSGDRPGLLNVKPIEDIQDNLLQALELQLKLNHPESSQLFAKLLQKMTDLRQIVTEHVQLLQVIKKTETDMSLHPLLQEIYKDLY
Chain of Peroxisome proliferator-activated receptor gamma/Nuclear receptor coactivator 2 (Q15596 whole entry, further chain): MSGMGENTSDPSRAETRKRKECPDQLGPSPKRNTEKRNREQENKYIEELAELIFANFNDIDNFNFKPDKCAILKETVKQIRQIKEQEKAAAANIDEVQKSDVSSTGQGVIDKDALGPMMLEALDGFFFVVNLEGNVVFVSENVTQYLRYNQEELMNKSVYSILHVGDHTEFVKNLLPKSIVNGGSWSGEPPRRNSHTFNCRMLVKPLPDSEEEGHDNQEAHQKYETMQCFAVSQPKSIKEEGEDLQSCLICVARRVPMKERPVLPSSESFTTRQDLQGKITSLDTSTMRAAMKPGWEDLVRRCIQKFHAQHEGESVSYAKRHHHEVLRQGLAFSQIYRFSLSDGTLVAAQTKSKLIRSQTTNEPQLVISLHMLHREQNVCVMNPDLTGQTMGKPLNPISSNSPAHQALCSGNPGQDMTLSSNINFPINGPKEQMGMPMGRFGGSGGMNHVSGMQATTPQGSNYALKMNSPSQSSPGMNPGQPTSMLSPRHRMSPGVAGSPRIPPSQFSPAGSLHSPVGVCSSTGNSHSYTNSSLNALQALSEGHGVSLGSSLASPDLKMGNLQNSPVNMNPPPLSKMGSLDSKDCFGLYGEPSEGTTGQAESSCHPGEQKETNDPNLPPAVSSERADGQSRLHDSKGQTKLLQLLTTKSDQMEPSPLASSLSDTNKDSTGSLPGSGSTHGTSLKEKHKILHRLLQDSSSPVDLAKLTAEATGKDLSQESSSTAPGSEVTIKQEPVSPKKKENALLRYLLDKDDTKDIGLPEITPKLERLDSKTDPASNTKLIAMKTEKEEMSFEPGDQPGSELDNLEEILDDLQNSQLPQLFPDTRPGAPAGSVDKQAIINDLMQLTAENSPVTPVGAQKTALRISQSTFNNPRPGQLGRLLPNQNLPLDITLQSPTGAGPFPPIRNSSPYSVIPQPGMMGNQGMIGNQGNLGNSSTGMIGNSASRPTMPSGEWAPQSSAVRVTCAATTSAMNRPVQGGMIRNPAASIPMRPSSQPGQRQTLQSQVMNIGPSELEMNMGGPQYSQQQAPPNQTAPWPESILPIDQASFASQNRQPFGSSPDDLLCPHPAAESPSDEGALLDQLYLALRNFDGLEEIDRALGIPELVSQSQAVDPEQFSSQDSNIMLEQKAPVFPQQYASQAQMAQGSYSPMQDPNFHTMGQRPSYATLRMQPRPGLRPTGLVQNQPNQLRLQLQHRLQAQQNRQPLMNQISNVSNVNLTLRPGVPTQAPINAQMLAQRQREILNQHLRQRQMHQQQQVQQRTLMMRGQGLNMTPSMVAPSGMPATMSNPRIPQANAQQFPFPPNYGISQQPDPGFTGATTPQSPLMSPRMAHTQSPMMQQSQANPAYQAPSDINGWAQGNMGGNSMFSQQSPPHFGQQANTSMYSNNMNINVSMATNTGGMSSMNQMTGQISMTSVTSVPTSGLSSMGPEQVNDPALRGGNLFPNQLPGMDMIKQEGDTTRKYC
Chain of Peroxisome proliferator-activated receptor gamma/Nuclear receptor coactivator 1 (P37231 whole entry): as the sequence (P37231 whole entry) above
Chain of Peroxisome proliferator-activated receptor gamma/Nuclear receptor coactivator 1 (Q15788 whole entry, further chain): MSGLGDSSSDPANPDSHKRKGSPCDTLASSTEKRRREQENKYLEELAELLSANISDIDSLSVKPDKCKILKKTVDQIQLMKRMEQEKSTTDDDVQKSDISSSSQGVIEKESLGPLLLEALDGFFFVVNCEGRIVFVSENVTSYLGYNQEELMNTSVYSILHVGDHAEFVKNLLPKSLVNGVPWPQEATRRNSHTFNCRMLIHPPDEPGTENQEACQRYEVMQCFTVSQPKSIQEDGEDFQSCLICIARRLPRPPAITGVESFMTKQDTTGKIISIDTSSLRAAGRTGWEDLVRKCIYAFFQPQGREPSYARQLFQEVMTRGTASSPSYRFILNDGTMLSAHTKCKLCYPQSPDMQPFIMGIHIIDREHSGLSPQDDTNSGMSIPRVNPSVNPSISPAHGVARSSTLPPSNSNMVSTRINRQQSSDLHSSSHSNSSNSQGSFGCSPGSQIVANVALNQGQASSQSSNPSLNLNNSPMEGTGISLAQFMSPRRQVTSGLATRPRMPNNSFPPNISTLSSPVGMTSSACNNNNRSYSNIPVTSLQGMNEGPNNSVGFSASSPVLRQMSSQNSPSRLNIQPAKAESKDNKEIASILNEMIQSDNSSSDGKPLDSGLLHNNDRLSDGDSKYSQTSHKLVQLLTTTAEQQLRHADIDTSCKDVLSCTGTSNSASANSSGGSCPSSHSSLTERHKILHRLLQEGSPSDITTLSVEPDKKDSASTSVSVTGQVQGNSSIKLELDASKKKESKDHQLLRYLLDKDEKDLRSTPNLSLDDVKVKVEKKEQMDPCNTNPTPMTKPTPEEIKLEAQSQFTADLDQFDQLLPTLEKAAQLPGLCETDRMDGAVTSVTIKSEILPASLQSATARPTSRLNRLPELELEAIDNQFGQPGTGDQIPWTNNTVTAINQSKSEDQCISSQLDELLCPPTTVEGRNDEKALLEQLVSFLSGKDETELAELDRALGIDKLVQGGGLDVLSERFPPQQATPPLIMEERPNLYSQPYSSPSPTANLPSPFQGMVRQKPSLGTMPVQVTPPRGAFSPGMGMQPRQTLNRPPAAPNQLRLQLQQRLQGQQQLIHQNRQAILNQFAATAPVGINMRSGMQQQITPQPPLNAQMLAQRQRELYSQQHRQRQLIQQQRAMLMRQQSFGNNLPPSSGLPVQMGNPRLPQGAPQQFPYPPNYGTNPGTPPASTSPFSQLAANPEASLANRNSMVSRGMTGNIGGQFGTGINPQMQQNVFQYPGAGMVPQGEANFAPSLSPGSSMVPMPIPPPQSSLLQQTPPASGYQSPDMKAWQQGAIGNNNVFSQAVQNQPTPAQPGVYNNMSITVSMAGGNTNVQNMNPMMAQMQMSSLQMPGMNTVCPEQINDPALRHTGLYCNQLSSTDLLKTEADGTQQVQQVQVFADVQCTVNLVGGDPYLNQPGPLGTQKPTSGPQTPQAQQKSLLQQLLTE
Chain of DNA dC->dU-editing enzyme APOBEC-3G (Q9HC16 whole entry, the tested form may be a part): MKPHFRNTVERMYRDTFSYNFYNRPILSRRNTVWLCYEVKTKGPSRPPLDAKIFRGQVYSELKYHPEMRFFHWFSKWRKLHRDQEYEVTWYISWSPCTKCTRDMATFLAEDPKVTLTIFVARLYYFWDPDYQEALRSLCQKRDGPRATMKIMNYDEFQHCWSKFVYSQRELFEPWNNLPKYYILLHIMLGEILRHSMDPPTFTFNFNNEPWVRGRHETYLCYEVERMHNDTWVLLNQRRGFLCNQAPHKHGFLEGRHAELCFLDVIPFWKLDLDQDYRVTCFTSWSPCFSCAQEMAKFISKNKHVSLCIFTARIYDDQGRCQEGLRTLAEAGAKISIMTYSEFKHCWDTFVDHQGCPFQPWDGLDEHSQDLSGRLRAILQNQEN
Chain of DNA dC->dU-editing enzyme APOBEC-3A (P31941 whole entry): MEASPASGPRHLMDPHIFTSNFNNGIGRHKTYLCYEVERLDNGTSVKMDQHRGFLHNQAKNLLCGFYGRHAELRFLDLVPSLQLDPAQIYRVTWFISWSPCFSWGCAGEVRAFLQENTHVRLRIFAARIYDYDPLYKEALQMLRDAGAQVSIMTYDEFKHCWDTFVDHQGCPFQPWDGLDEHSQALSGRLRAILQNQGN

Question: With `CCCCCCn1c(=O)c(C(=O)Nc2nnc(C)s2)c(O)c2ccccc21` as the molecule, how does the CC50 [1] read?
Answer: > 40 µM (active)

Question: What about the IC50 (cells) of the same molecule?
Answer: 22.6 µM (active)

Question: For `Cc1ccc2cc(CCNC(=O)c3ccc(S(=O)(=O)N4CCCCC4)cc3)c(O)nc2c1`, which IC50 (Hexokinase HKDC1) is on record?
Answer: 8.17 µM (active)

Question: Which EC50 [2] does the source give for `COc1ccccc1CN(C)C(=O)c1ccc2c(c1)NC(=O)CS2` here?
Answer: > 79.4 µM (not active)

Question: And the EC50 [3]?
Answer: > 79.4 µM (not active)

Question: And the EC50 [4]?
Answer: > 79.4 µM (not active)

Question: Which IC50 [5] does the source give for `Cc1ccc(C(=O)OCC(=O)N(CC(C)C)c2c(N)n(Cc3ccccc3)c(=O)[nH]c2=O)o1` here?
Answer: > 80 µM (inactive)

Question: With `O=S1(=O)CC2N=C(N(Cc3ccc(F)cc3Cl)c3ccccc3F)SC2C1` (centres undefined) as the molecule, how does the EC50 [2] read?
Answer: > 79.4 µM (not active)

Question: And the EC50 [3]?
Answer: > 79.4 µM (not active)

Question: And the EC50 [4]?
Answer: > 79.4 µM (not active)

Question: With `CC(=O)C1=C(C)OC(N)=C(C#N)C1c1ccco1` (centres undefined) as the molecule, how does the IC50 (Bcl-2-like protein 10) read?
Answer: > 6.25 µM (inactive)

Question: What does the source list for `Cc1ccc(/C=C2\SC(N)=NC2=O)s1`?
Answer: EC50 [2]: > 79.4 µM (not active); EC50 [3]: > 79.4 µM (not active); EC50 [4]: > 79.4 µM (not active)

Question: Which IC50 [6] does the source give for `COc1ccc(N2C(=O)C[S+]([O-])C(c3ccccc3)C2=O)cc1` (centres undefined) here?
Answer: > 100 µM (inactive)

Question: What about the IC50 [7] of the same molecule?
Answer: 7.26 µM (active)

Question: What does the source list for `CCOC(=O)c1ccc(-c2ccc(C(=O)Nc3cccnc3)o2)cc1`?
Answer: CC50 [1]: 29.7 µM (active); IC50 (cells): 7.87 µM (active)

Question: With `C[C@]12CC[C@@H]3c4ccc(O)cc4[C@@H](O)C[C@H]3[C@@H]1CC[C@@H]2O` as the molecule, how does the EC50 (Estrogen receptor) read?
Answer: 12.7 µM (active)
